# According to patent US20090093423A2, “NOVEL 2-SUBSTITUTED METHYL PENAM DERIVATIVES” (Orchid Chemicals and Pharmaceuticals Limited, priority 2006, published 2009):
# Experiments:
# [1] = tested on: K. pneumoniae 51503 (TEM-10 & -12); experiment: MIC, Agar Dilution Method, ESBL producing ATCC isolate; assay type: cell-based
# Experimental: (§1) The novel compounds were tested for the in vitro antibacterial activities by the Agar Dilution Method as specified in documents published by NCCLS, now CLSI, USA. (National Committee for Clinical Laboratory Standards (NCCLS). 2003. Approved standard M7-A6. NCCLS, Villanova, Pa.).
# (§2) Tazo was also dissolved in same buffer to get a solution of, e.g., 1 mg/mL. Novel penam derivatives described herein were dissolved in water to get a solution of, e.g., 1 mg/mL.
# (§3) The novel compounds and Tazo were also tested individually. The bacterial inoculum was prepared by picking 3 to 5 well-isolated bacterial colonies with the same morphological appearance from an 18-24 h old culture and adjusting the turbidity of the saline suspension to 0.5 McFarland Turbidity Standard equivalent to a bacterial population of 1.5×10^8 colony forming units (CFU) per mL of suspension. The suspension was diluted 1:10 in saline (i.e. 0.5 mL suspension+4.5 mL saline) to get a bacterial population of 1.5×10^7 CFU/mL as inoculum. […] The inoculated petridishes were incubated at 35° C. in an ambient atmosphere for 16-20 h.
# [2] = Intravenous pharmacokinetics in mice; assay type: in vivo, Swiss mice; conditions: mouse, in vivo, iv
# Source text: Blood samples were collected at different time points. These samples were processed and analyzed by HPLC.
# [3] = tested on: ESBLs types SHV-3 and SHV-4; conditions: Bryson and Brogden, 1994; cited from earlier work
# A. baumani MRO 14512 = experiment: MIC, Agar Dilution Method, resistant clinical isolate; assay type: cell-based; conditions: Pip + 4 μg/mL inhibitor
# Experimental: as §1, §2, §3
# E. coli MRO 10135 = experiment: as above; assay type: cell-based; conditions: Pip + 4 μg/mL inhibitor
# Experimental: as §1, §2, §3
# A. baumani MRO 14515 = experiment: as above; assay type: cell-based; conditions: Pip + 4 μg/mL inhibitor
# Experimental: as §1, §2, §3
# A. baumani MRO 14514 = experiment: as above; assay type: cell-based; conditions: Pip + 4 μg/mL inhibitor
# Experimental: as §1, §2, §3
# E. coli MRO 10007 = experiment: MIC, Agar Dilution Method; assay type: cell-based; conditions: strain 10007 (uncharacterized-ESBL clinical strain); inhibitor 1 μg/mL
# Experimental: as §1, §2, §3
# K. pneumoniae MRO 11007 = experiment: MIC, Agar Dilution Method; assay type: cell-based; conditions: strain 11007 (uncharacterized-ESBL clinical strain); inhibitor 1 μg/mL
# Experimental: as §1, §2, §3
# [4] = tested on: K. pneumoniae ATCC 700603; experiment: MIC, Agar Dilution Method; assay type: cell-based; conditions: for MIC of Piperacillin with different concentrations of Tazo or compound of Example 1: K. pneumoniae 700603, SHV-18
# Experimental: as §1, §2, §3
# K. pneumoniae 11009 = experiment: MIC, Agar Dilution Method; assay type: cell-based; conditions: strain 11009 (uncharacterized-ESBL clinical strain); inhibitor 1 μg/mL
# Experimental: as §1, §2, §3
# E. cloacae 11801 = experiment: MIC, Agar Dilution Method; assay type: cell-based; conditions: inhibitor 1 μg/mL
# Experimental: as §1, §2, §3
# E. coli MRO 10002 = experiment: MIC, Agar Dilution Method; assay type: cell-based; conditions: strain 10002 (uncharacterized-ESBL clinical strain); inhibitor 1 μg/mL
# Experimental: as §1, §2, §3
# C. freundii 12301 = experiment: MIC, Agar Dilution Method; assay type: cell-based; conditions: inhibitor 1 μg/mL
# Experimental: as §1, §2, §3
# P. aeruginosa ATCC 27853 = experiment: MIC, Agar Dilution Method; assay type: cell-based; conditions: inhibitor 1 μg/mL
# Experimental: as §1, §2, §3
# E. coli MRO 10006 = experiment: MIC, Agar Dilution Method; assay type: cell-based; conditions: strain 10006 (uncharacterized-ESBL clinical strain); inhibitor 1 μg/mL
# Experimental: as §1, §2, §3
# K. pneumoniae 11012 = experiment: MIC, Agar Dilution Method; assay type: cell-based; conditions: inhibitor 1 μg/mL
# Experimental: as §1, §2, §3
# K. pneumoniae MRO 11008 = experiment: MIC, Agar Dilution Method; assay type: cell-based; conditions: strain 11008 (uncharacterized-ESBL clinical strain); inhibitor 1 μg/mL
# Experimental: as §1, §2, §3
# E. coli 10003 = experiment: MIC, Agar Dilution Method; assay type: cell-based; conditions: inhibitor 1 μg/mL
# Experimental: as §1, §2, §3
# P. aeruginosa 15020 = experiment: MIC, Agar Dilution Method; assay type: cell-based; conditions: inhibitor 1 μg/mL
# Experimental: as §1, §2, §3
# K. pneumoniae 11006 = experiment: MIC, Agar Dilution Method; assay type: cell-based; conditions: strain 11006 (uncharacterized-ESBL clinical strain); inhibitor 1 μg/mL
# Experimental: as §1, §2, §3
# C. sedlakii 12303 = experiment: MIC, Agar Dilution Method; assay type: cell-based; conditions: inhibitor 1 μg/mL
# Experimental: as §1, §2, §3
# S. odonifera 13801 = experiment: MIC, Agar Dilution Method; assay type: cell-based; conditions: inhibitor 1 μg/mL
# Experimental: as §1, §2, §3
# E. cloacae 11802 = experiment: MIC, Agar Dilution Method; assay type: cell-based; conditions: inhibitor 1 μg/mL
# Experimental: as §1, §2, §3
# M. morganii 13702 = experiment: MIC, Agar Dilution Method; assay type: cell-based; conditions: inhibitor 1 μg/mL
# Experimental: as §1, §2, §3
# P. aeruginosa 15021 = experiment: MIC, Agar Dilution Method; assay type: cell-based; conditions: inhibitor 1 μg/mL
# Experimental: as §1, §2, §3
# M. morganii 13701 = experiment: MIC, Agar Dilution Method; assay type: cell-based; conditions: inhibitor 1 μg/mL
# Experimental: as §1, §2, §3
# A. baumanii 14501 = experiment: MIC, Agar Dilution Method; assay type: cell-based; conditions: inhibitor 1 μg/mL
# Experimental: as §1, §2, §3
# [5] = tested on: M. catarrhalis ATCC 43617; experiment: MIC, Agar Dilution Method; assay type: cell-based; conditions: inhibitor 1 μg/mL
# Experimental: as §1, §2, §3
# E. coli 10004 = experiment: MIC, Agar Dilution Method; assay type: cell-based; conditions: inhibitor 1 μg/mL
# Experimental: as §1, §2, §3
# [6] = tested on: M. catarrhalis ATCC 43627; experiment: MIC, Agar Dilution Method; assay type: cell-based; conditions: inhibitor 1 μg/mL
# Experimental: as §1, §2, §3
# E. coli ATCC 25922 = experiment: MIC, Agar Dilution Method; assay type: cell-based; conditions: inhibitor 1 μg/mL
# Experimental: as §1, §2, §3
# E. coli 10001 = experiment: MIC, Agar Dilution Method; assay type: cell-based; conditions: strain 10001 (uncharacterized-ESBL clinical strain); inhibitor 1 μg/mL
# Experimental: as §1, §2, §3
# P. aeruginosa 15019 = experiment: MIC, Agar Dilution Method; assay type: cell-based; conditions: inhibitor 1 μg/mL
# Experimental: as §1, §2, §3
# K. pneumoniae 11010 = experiment: MIC, Agar Dilution Method; assay type: cell-based; conditions: inhibitor 1 μg/mL
# Experimental: as §1, §2, §3
compound,measurement,setting,value
C[C@]1(Cn2ccnn2)[C@H](C(=O)O)N2C(=O)C[C@H]2S1(=O)=O [Tazo],MIC of Piperacillin with different concentrations of Tazo or compound of Example 1,[1]; inhibitor 1 μg/mL,>128 µg/mL
same,MIC of Piperacillin with different concentrations of Tazo or compound of Example 1,[1]; inhibitor 2 μg/mL,>128 µg/mL
same,MIC of Piperacillin with different concentrations of Tazo or compound of Example 1,[1]; inhibitor 4 μg/mL,16 µg/mL
same,Elimination half-life,[2],16.1 min
same,activity against ESBLs types SHV-3 and SHV-4,[3],inactive
same,MIC of Piperacillin in combination with 4 μg/mL inhibitor,A. baumani MRO 14512,64 µg/mL
same,MIC of Piperacillin in combination with 4 μg/mL inhibitor,E. coli MRO 10135,>128 µg/mL
same,MIC of Piperacillin in combination with 4 μg/mL inhibitor,A. baumani MRO 14515,128 µg/mL
same,MIC of Piperacillin in combination with 4 μg/mL inhibitor,A. baumani MRO 14514,64 µg/mL
same,MIC of Piperacillin with Tazo or compounds described herein at 1 μg/mL,E. coli MRO 10007,1 µg/mL
same,MIC of Piperacillin with Tazo or compounds described herein at 1 μg/mL,K. pneumoniae MRO 11007,>128 µg/mL
same,MIC of Piperacillin with different concentrations of Tazo or compound of Example 1,[4]; inhibitor 1 μg/mL,16 µg/mL
same,MIC of Piperacillin with different concentrations of Tazo or compound of Example 1,[4]; inhibitor 2 μg/mL,16 µg/mL
same,MIC of Piperacillin with different concentrations of Tazo or compound of Example 1,[4]; inhibitor 4 μg/mL,16 µg/mL
same,MIC of Piperacillin with Tazo or compounds described herein at 1 μg/mL,"[4]; K. pneumoniae ATCC 700603, inhibitor 1 μg/mL",16 µg/mL
same,MIC of Piperacillin with Tazo or compounds described herein at 1 μg/mL,K. pneumoniae 11009,16 µg/mL
same,MIC of Piperacillin with Tazo or compounds described herein at 1 μg/mL,E. cloacae 11801,2 µg/mL
same,MIC of Piperacillin with Tazo or compounds described herein at 1 μg/mL,E. coli MRO 10002,128 µg/mL
same,MIC of Piperacillin with Tazo or compounds described herein at 1 μg/mL,C. freundii 12301,16 µg/mL
same,MIC of Piperacillin with Tazo or compounds described herein at 1 μg/mL,P. aeruginosa ATCC 27853,4 µg/mL
same,MIC of Piperacillin with Tazo or compounds described herein at 1 μg/mL,E. coli MRO 10006,2 µg/mL
same,MIC of Piperacillin with Tazo or compounds described herein at 1 μg/mL,K. pneumoniae 11012,2 µg/mL
same,MIC of Piperacillin with Tazo or compounds described herein at 1 μg/mL,K. pneumoniae MRO 11008,>128 µg/mL
same,MIC of Piperacillin with Tazo or compounds described herein at 1 μg/mL,E. coli 10003,32 µg/mL
same,MIC of Piperacillin with Tazo or compounds described herein at 1 μg/mL,P. aeruginosa 15020,64 µg/mL
same,MIC of Piperacillin with Tazo or compounds described herein at 1 μg/mL,K. pneumoniae 11006,32 µg/mL
same,MIC of Piperacillin with Tazo or compounds described herein at 1 μg/mL,C. sedlakii 12303,1 µg/mL
same,MIC of Piperacillin with Tazo or compounds described herein at 1 μg/mL,S. odonifera 13801,2 µg/mL
same,MIC of Piperacillin with Tazo or compounds described herein at 1 μg/mL,E. cloacae 11802,64 µg/mL
same,MIC of Piperacillin with Tazo or compounds described herein at 1 μg/mL,M. morganii 13702,<0.25 µg/mL
same,MIC of Piperacillin with Tazo or compounds described herein at 1 μg/mL,P. aeruginosa 15021,32 µg/mL
same,MIC of Piperacillin with Tazo or compounds described herein at 1 μg/mL,M. morganii 13701,16 µg/mL
same,MIC of Piperacillin with Tazo or compounds described herein at 1 μg/mL,A. baumanii 14501,8 µg/mL
same,MIC of Piperacillin with Tazo or compounds described herein at 1 μg/mL,[5],<0.25 µg/mL
same,MIC of Piperacillin with Tazo or compounds described herein at 1 μg/mL,E. coli 10004,16 µg/mL
same,MIC of Piperacillin with Tazo or compounds described herein at 1 μg/mL,[6],<0.25 µg/mL
same,MIC of Piperacillin with Tazo or compounds described herein at 1 μg/mL,E. coli ATCC 25922,2 µg/mL
same,MIC of Piperacillin with Tazo or compounds described herein at 1 μg/mL,E. coli 10001,16 µg/mL
same,MIC of Piperacillin with Tazo or compounds described herein at 1 μg/mL,P. aeruginosa 15019,32 µg/mL
same,MIC of Piperacillin with Tazo or compounds described herein at 1 μg/mL,K. pneumoniae 11010,2 µg/mL
